Data as given in patent US20100035755A1, “METHOD OF CONTROLLING WEEDS IN A TURF GRASS BY USING SULFONYLUREA COMPOUNDS” (Moghu Research Center Ltd., priority 2008, published 2010).

Columns and labels:
cool season turf grass = conditions: background statement; creeping bentgrass, Kentucky bluegrass; cited from earlier work
warm season turf grass = conditions: background statement; zoysiagrass, Burmudagrass; cited from earlier work
Kyllinga brevifolia = test: Actual field condition test of Example 1 (golf course); assay type: in vivo; conditions: for efficacy in actual field condition: Kyllinga brevifolia (growth period), twenty days after application
Method: The test chemical of the Example 1 was applied to a turf grass field, in which Digitaria sanguinalis as a representative summer-time poaceae weed and Kyllinga brevifolia as a representative hard-to-control perennial cyperaceae weed are thriving predominantly, to evaluate weed control effect of the compound. The experiment was carried out from May to July, 2008 in the Dae-duk Research Park golf course (Doryong-dong, Yusong-gu, Daejon, South Korea). At the time of the chemical application, Digitaria sanguinalis was at about 4-leaf stage and Kyllinga brevifolia was at growth period.

SMILES | safety to cool season turf grass (cool season turf grass) | safety to warm season turf grass (warm season turf grass) | efficacy in actual field condition (Kyllinga brevifolia; 50 g ai/ha) | efficacy in actual field condition (Kyllinga brevifolia; 100 g ai/ha) | efficacy in actual field condition (Kyllinga brevifolia; 200 g ai/ha) | weed controlled in actual field (Kyllinga brevifolia; Kyllinga brevifolia, 50 g ai/ha or more)
COc1cc(OC)nc(NC(=O)NS(=O)(=O)c2ncccc2C(F)(F)F)n1 [Control chemical No. 2, Flazasulfuron, reference compound] | no safety | have a safety | – | – | – | –
Cc1cc(C)nc(NC(=O)NS(=O)(=O)c2ccccc2C(O)C(C)F)n1 (stereo not drawn) [Example 1] | – | – | 100 | 100 | 100 | 100%
